The record followed here is ChEMBL document CHEMBL5465560, “Selectivity Literature for EUbOPEN Chemogenomic Library” (2024).

The target of assay [1] is T1, Phosphatidylinositol 4,5-bisphosphate 3-kinase catalytic subunit delta isoform (Homo sapiens) (UniProt O00329).
T1 sequence (whole entry): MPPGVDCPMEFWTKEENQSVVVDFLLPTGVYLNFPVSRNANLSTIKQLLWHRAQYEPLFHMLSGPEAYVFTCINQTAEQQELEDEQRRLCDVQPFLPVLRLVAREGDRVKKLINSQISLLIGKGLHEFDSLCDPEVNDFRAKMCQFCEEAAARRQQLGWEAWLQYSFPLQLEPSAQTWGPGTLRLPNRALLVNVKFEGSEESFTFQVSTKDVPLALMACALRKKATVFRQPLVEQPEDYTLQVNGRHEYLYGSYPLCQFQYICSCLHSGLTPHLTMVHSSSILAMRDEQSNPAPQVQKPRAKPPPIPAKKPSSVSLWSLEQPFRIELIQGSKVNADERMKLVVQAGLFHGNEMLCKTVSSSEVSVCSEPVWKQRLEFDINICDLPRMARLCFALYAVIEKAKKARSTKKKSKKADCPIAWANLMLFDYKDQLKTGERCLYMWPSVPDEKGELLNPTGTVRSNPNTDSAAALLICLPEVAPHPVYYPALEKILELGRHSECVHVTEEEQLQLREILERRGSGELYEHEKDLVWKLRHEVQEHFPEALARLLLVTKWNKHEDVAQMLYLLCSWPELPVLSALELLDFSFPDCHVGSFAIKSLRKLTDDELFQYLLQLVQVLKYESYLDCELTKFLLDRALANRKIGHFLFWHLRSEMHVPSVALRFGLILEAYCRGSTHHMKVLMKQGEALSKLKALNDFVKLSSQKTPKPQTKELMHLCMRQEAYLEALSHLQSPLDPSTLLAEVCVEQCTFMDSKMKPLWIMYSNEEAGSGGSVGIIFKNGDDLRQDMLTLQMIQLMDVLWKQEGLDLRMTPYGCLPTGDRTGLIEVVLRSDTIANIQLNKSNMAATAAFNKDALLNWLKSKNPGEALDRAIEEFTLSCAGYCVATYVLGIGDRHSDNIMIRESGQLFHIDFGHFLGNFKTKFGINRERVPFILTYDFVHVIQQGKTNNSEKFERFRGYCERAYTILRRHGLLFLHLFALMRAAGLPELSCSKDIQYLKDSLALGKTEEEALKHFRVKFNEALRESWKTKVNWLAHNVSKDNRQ
Briefly: Selectivity interaction (Kinase panel (KiNativ target engagement assay in Jurkat cells)) EUB0001635a PIK3CD. The class given is cell-based. Conditions: Selectivity number of off-targets 0.0, Selectivity number of targets 233.0, Source Knowledge https://www.sciencedirect.com/science/article/pii/S2451945619300674?via%3Dihub, at 1 µM.

The target in assay [2] is T2, Protein arginine N-methyltransferase 9 (Homo sapiens) (UniProt Q6P2P2).
T2 sequence (whole entry): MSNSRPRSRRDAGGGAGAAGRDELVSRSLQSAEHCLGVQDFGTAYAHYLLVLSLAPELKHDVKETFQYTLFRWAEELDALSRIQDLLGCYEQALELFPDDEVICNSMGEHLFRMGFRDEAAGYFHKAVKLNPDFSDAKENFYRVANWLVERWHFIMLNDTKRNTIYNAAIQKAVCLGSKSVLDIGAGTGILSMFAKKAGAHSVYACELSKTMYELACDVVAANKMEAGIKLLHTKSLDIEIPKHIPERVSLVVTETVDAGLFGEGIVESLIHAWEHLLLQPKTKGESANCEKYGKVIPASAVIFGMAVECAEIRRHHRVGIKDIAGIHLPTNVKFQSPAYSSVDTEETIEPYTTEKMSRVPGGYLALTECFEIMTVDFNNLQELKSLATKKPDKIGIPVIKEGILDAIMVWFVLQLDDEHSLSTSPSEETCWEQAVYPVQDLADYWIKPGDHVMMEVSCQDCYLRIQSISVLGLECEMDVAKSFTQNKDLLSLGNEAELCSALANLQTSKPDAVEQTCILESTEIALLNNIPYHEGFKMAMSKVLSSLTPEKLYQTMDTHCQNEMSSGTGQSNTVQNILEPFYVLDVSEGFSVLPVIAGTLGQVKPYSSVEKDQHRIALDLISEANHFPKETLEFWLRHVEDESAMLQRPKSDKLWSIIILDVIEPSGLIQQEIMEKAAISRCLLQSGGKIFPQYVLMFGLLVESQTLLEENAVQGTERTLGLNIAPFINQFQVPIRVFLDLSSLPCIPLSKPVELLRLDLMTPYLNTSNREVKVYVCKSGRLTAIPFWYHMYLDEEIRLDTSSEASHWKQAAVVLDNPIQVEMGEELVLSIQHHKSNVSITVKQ
Briefly: Selectivity interaction (Methyltransferase screen (Scintillation proximity assays)) EUB0000255b PRMT9. (Scintillation proximity formats need no separation of bound from free tracer.)

Assay [3] concerns the target T3, Scaffold protein ILK (Homo sapiens) (UniProt Q13418).
T3 sequence (whole entry): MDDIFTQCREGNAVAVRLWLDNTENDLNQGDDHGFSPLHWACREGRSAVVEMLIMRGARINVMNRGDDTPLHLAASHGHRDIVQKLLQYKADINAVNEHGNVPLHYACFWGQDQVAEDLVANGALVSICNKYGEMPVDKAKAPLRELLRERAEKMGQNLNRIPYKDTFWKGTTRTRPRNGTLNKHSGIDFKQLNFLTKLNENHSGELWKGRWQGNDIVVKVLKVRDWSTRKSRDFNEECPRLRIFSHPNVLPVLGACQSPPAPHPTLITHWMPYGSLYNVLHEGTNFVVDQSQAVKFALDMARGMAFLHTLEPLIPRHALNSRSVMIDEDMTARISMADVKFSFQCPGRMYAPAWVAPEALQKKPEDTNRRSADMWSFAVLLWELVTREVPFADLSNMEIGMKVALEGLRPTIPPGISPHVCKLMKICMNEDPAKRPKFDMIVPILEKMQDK
Kind of assay: Selectivity interaction (ActivX KiNativ screen (ex vivo kinase selectivity in human PBMCs)) EUB0001619a ILK. The class given is cell-based. The note with it: PBMC, at 1 µM.

The target of assay [4] is Phosphatidylinositol 4,5-bisphosphate 3-kinase catalytic subunit gamma isoform (Homo sapiens) (UniProt P48736). Briefly: Selectivity interaction (Kinase panel (Invitrogen)) EUB0000639a PIK3CG. The note with it: at 200 nM.
Chain of Phosphatidylinositol 4,5-bisphosphate 3-kinase catalytic subunit gamma isoform (Homo sapiens) (P48736 whole entry, looked up, canonical isoform): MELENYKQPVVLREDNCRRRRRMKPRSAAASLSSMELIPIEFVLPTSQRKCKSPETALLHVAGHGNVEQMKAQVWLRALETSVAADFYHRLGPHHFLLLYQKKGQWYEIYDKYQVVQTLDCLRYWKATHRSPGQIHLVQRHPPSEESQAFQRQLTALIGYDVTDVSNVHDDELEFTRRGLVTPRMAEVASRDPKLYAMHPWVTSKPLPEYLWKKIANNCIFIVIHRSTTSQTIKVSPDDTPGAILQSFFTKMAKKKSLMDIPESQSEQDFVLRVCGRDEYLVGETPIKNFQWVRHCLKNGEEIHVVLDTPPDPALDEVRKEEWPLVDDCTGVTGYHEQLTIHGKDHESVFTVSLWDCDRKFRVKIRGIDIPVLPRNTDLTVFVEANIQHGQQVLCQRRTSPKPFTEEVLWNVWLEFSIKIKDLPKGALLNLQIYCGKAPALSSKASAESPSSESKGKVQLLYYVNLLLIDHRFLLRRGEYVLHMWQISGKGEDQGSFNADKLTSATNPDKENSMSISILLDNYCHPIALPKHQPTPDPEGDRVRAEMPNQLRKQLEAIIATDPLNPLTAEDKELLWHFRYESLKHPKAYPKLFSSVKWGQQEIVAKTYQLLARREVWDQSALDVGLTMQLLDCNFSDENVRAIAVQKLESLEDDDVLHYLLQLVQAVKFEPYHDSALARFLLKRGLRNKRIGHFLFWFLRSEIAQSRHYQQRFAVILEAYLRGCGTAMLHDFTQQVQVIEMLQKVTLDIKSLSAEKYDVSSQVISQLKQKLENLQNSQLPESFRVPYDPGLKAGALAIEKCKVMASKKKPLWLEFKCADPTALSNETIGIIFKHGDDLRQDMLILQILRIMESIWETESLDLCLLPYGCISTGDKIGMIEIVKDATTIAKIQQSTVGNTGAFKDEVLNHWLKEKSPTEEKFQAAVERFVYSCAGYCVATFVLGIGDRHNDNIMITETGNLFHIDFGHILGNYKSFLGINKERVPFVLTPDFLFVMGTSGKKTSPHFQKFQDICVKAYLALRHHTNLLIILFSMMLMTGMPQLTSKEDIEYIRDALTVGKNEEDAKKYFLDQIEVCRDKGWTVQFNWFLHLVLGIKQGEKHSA
The target of the next assay is Ephrin type-A receptor 4 (Homo sapiens, UniProt P54764). Conditions: at 10 µM.
Chain of Ephrin type-A receptor 4 (P54764 whole entry): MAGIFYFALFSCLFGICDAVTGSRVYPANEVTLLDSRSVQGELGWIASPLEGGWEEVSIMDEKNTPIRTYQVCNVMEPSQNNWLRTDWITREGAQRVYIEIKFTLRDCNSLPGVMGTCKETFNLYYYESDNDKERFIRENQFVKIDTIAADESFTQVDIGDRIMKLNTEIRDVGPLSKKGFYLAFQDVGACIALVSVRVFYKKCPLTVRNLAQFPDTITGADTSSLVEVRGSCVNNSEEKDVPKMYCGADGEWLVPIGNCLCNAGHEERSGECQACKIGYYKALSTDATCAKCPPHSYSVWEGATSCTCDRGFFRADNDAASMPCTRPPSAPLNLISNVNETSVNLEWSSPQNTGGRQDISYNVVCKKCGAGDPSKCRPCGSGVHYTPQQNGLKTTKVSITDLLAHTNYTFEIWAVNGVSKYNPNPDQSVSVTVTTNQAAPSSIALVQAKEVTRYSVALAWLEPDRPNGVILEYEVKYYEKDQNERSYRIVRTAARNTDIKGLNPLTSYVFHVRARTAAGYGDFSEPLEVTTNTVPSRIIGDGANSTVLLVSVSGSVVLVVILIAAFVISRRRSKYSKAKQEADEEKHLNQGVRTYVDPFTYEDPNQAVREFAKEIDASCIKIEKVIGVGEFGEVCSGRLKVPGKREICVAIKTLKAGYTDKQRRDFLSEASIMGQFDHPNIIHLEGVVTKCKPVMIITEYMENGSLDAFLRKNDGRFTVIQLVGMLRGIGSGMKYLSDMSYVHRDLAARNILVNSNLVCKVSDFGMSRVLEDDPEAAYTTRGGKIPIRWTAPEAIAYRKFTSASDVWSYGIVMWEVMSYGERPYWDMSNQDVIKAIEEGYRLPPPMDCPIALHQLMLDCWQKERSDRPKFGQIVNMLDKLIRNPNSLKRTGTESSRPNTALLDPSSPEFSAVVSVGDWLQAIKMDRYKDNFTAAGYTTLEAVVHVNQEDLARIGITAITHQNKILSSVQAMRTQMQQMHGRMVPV
In assay [5] the target is Receptor tyrosine-protein kinase erbB-2 (Homo sapiens, UniProt P04626). Conditions: at 10 µM.
Chain of Receptor tyrosine-protein kinase erbB-2 (P04626 whole entry): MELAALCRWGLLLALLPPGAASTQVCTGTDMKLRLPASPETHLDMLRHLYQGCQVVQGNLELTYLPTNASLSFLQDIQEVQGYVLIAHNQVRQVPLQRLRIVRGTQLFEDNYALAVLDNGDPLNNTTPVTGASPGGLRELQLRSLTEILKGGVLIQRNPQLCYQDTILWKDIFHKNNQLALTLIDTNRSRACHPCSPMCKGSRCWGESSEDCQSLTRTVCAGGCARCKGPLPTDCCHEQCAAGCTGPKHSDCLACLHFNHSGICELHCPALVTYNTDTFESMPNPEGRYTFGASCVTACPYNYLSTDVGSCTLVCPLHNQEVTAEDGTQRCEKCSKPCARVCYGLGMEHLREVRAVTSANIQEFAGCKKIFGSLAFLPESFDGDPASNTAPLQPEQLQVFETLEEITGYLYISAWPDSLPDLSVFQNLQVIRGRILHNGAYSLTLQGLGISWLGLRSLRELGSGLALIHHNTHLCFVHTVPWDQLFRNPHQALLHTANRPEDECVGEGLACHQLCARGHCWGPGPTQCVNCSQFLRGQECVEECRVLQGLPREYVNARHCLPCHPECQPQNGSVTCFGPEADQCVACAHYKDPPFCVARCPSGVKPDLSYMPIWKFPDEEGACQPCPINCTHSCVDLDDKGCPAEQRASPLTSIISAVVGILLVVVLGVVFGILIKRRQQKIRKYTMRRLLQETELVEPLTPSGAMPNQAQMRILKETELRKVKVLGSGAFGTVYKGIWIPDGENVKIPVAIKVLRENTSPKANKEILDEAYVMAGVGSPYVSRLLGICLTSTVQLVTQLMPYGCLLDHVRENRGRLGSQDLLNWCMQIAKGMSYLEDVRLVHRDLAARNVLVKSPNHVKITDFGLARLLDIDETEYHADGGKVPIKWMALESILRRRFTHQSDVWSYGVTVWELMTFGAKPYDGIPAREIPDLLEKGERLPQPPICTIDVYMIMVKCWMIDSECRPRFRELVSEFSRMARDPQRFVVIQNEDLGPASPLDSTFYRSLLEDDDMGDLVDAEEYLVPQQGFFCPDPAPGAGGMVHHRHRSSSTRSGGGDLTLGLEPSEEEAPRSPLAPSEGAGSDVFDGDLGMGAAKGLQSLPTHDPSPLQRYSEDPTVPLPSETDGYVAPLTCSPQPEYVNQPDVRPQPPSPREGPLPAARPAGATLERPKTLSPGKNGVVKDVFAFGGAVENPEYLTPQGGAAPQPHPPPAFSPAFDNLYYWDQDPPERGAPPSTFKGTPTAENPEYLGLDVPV

SMILES strings stand for the structures.

As for `C=CC(=O)Nc1ccc(C(=O)Nc2[nH]nc3c2CN(C(=O)N[C@H](CN(C)C)c2ccccc2)C3(C)C)cc1`, the % of engagement in assay [1] was -10.2%. Regarding `COCCN1CCC(c2cc(CN(C)C(=O)c3cccc(Oc4ccccc4)c3)ccn2)CC1`, the % activity is 90% in assay [2] (at 1 µM) and more than 90% in assay [2] (at 10 µM).

Compound `N#Cc1cccc(-c2c[nH]c3ncnc(N4CCOCC4)c23)c1` showed a % of inhibition in assay [3] of 14%. In assay [4], `CC[C@@H]1[C@H](F)C(=O)N[C@@H]1COc1nccc2cc(C(N)=O)c(OC)cc12` [ZIMLOVISERTIB] gave a % of inhibition of 6.49%. As for `COCC(=O)NC/C=C/c1ccc2ncnc(Nc3ccc(Oc4ccc(C)nc4)c(C)c3)c2c1` [CP-724714], the values for the % of control (on Ephrin type-A receptor 4; in assay [5]) were 98% and 0%, respectively.
